Data set [1] is described as follows: Storage stability: XRPD and HPLC analysis post storage at 40° C./75% RH or 25° C./97% RH. The following applies: three days. It is filed as physicochemical. The text has this:
Samples were run under ambient conditions as flat plate specimens using powder as received. The sample was gently packed into a cavity cut into polished, zero-background (510) silicon wafer. The sample was rotated in its own plane during analysis.

Data set [2] can be described thus: GVS (Gravimetric Vapor Sorption) and XRPD analysis post GVS. In kind it is physicochemical.

Structures are written as SMILES.

On to `CC(O)C1C(=O)N2C(C(=O)OCOC(=O)C(C)(C)C)=C(SC3CN(C4=NCCS4)C3)C(C)C12.O=S(=O)(O)CCS(=O)(=O)O` (stereo not drawn) [Example 13, Tebipenem Pivoxil Edisylate (EDSA) Salt], for which, in data set [1], the Appearance post storage result is “deliquesced”.

Take `CS(=O)(=O)O.C[C@@H](O)[C@H]1C(=O)N2C(C(=O)OCOC(=O)C(C)(C)C)=C(SC3CN(C4=NCCS4)C3)[C@H](C)[C@H]12` [Example 8, Tebeipenem Pivoxil Methane Sulfonate Salt (MSA)]: the “Hygroscopicity by GVS” value in data set [2] is “hygroscopic”. For the same compound, the GVS uptake in data set [2] (from 0 to 90% RH) stood at 10.0%.

Values taken from patent publication US10889587B2, “Tebipenem pivoxil crystalline forms, compositions including the same, methods of manufacture, and methods of use” (SPERO THERAPEUTICS, INC., priority 2017, dated 2021).
